From article PMC10176470, “Engaging a Non-catalytic Cysteine Residue Drives Potent and Selective Inhibition of Caspase-6” (Journal of the American Chemical Society, 2023)

Legend:
Experiment in all cases: SILAC proteomics / in-gel fluorescence, competition of probe 13-t labeling by 3a
[1] = molecular target: proteins of HEK293T cells transiently overexpressing caspase-6 (Homo sapiens, UniProt P38646); details: Comp; protein HSPA9 P38646
Procedure: (§1) Cells were lysed, and heavy and light SILAC lysates were combined in a 1:1 ratio and subjected to CuAAC reaction with azido-biotin to biotinylate probe-labeled proteins for subsequent capture on streptavidin-coated beads. Bead-bound proteins were split for analysis by in-gel fluorescence and tryptic digestion on-bead for LC–MS/MS analysis.
(§2) SILAC labeling and alkyne probe treatment: HEK293T cells were seeded into 8x 15 cm plates at
(§3) a density of 500,000 cells/plate. 4 of these plates were grown in light SILAC DMEM and 4 were
(§4) grown in heavy SILAC DMEM all containing 10% FBS and 4.5g/L glucose. The next day, all 8
(§5) plates were transfected with a pCMV6-Entry plasmid coding for caspase-6-myc-DDK lacking the
(§6) prodomain. After 24 hours, media was replaced with fresh SILAC growth media containing 4.5 g/L
(§7) glucose and 3% FBS. 24 hours later the plates were treated with probe and inhibitor for 1 hours as
(§8) follows: 2 of the light plates were treated with vehicle, 2 light plates and 2 heavy plates treated with
(§9) for 60 minutes. After treatment, media was removed, and cells were washed with 15 mL PBS for 5
(§10) minutes. Cells were then harvested by scraping in cold PBS and lysed in the presence of Roche
(§11) complete protease inhibitors. Lysates were clarified by centrifugation at 10,000xg for 10 minutes and
(§12) the protein in the supernatant was quantified by BCA assay.
(§13) Proteomics assay: 1 mg of each lysate was diluted to 2mg/ml in PBS with Roche complete protease
(§14) inhibitors. To this was added 0.1 mM biotin-azide, 1 mM tris(2-carboxyethyl)phosphine (TCEP), 0.1
(§15) mM Tris((1-benzyl-4-triazolyl)methyl)amine (TBTA) ligand, and 1 mM CuSO4 in a final volume of
(§16) 0.5 mL. The reaction was incubated at room temperature for 1 hour and was vortexed every 15
(§17) minutes. After 1 hour, proteins are precipitated and are pelleted by centrifuging at 16,000xg for 4
(§18) min at 4 °C. The supernatants were discarded, and the pellets were solubilized with 0.5 mL cold
(§19) The cold methanol wash was then repeated, and the washed
(§20) pellets were resuspended in 1 mL of 1.2% SDS and sonicated until clear. The samples were heat
(§21) denatured at 80-90 °C for 5 minutes and any insoluble particles were removed by centrifugation at
(§22) 6,500xg for 5 minutes. The 1 mL supernatant was transferred to a 15 mL conical tubes containing 5
(§23) mL of PBS and 150 µL of washed neutravidin beads were added. The samples were incubated for 2
(§24) hours at 4 °C while rotating, at which point the samples were warmed to resolubilize any precipitated
(§25) SDS. The beads were pelleted by centrifugation at 1400xg for 3 min and washed for 10 minutes with
(§26) the following solutions: 2x 1% NP-40, 2x PBS + 1 M NaCl, and 2x 50 mM ammonium bicarbonate
(§27) (ABC) + 2 M urea. The beads were then transferred to a 1.5 mL microcentrifuge tube using 2x250
(§28) µL 100 mM Tris pH 8.0 + 4 M Guanidium hydrochloride (final volume 500 µL).

[2] = molecular target: proteins of HEK293T cells transiently overexpressing caspase-6 (Homo sapiens, UniProt P12268)
Procedure: as §1, §2, §3, §4, §5, §6, §7, §8, §9, §10, §11, §12, §13, §14, §15, §16, §17, §18, §19, §20, §21, §22, §23, §24, §25, §26, §27, §28

[3] = molecular target: proteins of HEK293T cells transiently overexpressing caspase-6 (Homo sapiens, UniProt Q13347)
Chain of proteins of HEK293T cells transiently overexpressing caspase-6 (Homo sapiens, UniProt Q13347) (Q13347 whole entry): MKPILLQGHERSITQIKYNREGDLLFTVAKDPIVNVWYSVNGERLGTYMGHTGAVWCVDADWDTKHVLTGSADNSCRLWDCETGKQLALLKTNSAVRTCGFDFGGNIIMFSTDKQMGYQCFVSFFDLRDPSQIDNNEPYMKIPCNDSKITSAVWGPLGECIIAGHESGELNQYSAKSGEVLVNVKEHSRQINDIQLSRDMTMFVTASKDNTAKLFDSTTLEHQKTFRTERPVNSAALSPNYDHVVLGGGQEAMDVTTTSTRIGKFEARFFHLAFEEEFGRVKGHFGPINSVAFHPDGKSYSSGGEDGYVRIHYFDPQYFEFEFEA
Procedure: as §1, §2, §3, §4, §5, §6, §7, §8, §9, §10, §11, §12, §13, §14, §15, §16, §17, §18, §19, §20, §21, §22, §23, §24, §25, §26, §27, §28

[4] = molecular target: proteins of HEK293T cells transiently overexpressing caspase-6 (Homo sapiens, UniProt P63244); details: Comp; protein GNB2L1 P63244
Procedure: as §1, §2, §3, §4, §5, §6, §7, §8, §9, §10, §11, §12, §13, §14, §15, §16, §17, §18, §19, §20, §21, §22, §23, §24, §25, §26, §27, §28

[5] = molecular target: proteins of HEK293T cells transiently overexpressing caspase-6 (Homo sapiens, UniProt P09211)
Chain of proteins of HEK293T cells transiently overexpressing caspase-6 (Homo sapiens, UniProt P09211) (P09211 whole entry): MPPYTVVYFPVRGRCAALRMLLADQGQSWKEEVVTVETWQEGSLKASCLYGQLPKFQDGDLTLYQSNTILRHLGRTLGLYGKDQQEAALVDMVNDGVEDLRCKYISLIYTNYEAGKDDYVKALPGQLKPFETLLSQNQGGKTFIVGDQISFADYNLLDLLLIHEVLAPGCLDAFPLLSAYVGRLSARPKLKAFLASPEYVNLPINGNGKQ
Procedure: as §1, §2, §3, §4, §5, §6, §7, §8, §9, §10, §11, §12, §13, §14, §15, §16, §17, §18, §19, §20, §21, §22, §23, §24, §25, §26, §27, §28

[6] = molecular target: proteins of HEK293T cells transiently overexpressing caspase-6 (Homo sapiens, UniProt Q9Y262)
Chain of proteins of HEK293T cells transiently overexpressing caspase-6 (Homo sapiens, UniProt Q9Y262) (Q9Y262 whole entry): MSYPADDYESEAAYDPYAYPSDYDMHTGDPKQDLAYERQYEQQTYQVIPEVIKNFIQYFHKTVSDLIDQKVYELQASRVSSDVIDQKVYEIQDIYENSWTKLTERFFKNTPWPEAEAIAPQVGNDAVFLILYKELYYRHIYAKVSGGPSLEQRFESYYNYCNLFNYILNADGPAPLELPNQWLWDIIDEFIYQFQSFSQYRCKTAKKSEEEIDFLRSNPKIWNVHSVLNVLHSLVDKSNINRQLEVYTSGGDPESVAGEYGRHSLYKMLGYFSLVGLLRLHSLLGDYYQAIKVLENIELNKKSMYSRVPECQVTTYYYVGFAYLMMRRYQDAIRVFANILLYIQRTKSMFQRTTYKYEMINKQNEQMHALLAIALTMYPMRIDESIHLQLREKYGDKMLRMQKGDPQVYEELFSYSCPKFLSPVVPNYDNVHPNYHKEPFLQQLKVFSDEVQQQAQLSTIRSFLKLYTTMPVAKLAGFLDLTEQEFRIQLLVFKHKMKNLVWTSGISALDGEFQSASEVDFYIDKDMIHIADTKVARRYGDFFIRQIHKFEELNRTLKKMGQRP
Procedure: as §1, §2, §3, §4, §5, §6, §7, §8, §9, §10, §11, §12, §13, §14, §15, §16, §17, §18, §19, §20, §21, §22, §23, §24, §25, §26, §27, §28

[7] = molecular target: proteins of HEK293T cells transiently overexpressing caspase-6 (Homo sapiens, UniProt P62424); details: Comp; protein RPL7A P62424
Procedure: as §1, §2, §3, §4, §5, §6, §7, §8, §9, §10, §11, §12, §13, §14, §15, §16, §17, §18, §19, §20, §21, §22, §23, §24, §25, §26, §27, §28

[8] = molecular target: proteins of HEK293T cells transiently overexpressing caspase-6 (Homo sapiens, UniProt P12956); details: Comp; protein XRCC6 P12956
Chain of proteins of HEK293T cells transiently overexpressing caspase-6 (Homo sapiens, UniProt P12956) (P12956 whole entry): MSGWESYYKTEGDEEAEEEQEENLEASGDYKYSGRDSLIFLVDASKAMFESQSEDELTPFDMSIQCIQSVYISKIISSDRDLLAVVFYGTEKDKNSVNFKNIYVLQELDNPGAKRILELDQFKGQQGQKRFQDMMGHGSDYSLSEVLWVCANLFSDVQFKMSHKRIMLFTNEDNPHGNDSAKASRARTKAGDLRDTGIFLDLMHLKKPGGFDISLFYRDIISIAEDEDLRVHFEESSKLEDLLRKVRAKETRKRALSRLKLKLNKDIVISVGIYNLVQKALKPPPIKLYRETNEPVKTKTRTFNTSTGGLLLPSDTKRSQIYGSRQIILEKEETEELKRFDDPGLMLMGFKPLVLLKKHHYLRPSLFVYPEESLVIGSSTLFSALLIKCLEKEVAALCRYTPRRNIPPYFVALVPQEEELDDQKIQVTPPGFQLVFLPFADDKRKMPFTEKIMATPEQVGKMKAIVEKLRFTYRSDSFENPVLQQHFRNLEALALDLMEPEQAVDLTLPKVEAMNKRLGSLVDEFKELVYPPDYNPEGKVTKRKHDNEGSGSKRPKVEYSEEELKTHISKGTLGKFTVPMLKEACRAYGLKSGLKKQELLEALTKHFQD
Procedure: as §1, §2, §3, §4, §5, §6, §7, §8, §9, §10, §11, §12, §13, §14, §15, §16, §17, §18, §19, §20, §21, §22, §23, §24, §25, §26, §27, §28

[9] = molecular target: proteins of HEK293T cells transiently overexpressing caspase-6 (Homo sapiens, UniProt Q04917); details: Comp; protein YWHAH Q04917
Chain of proteins of HEK293T cells transiently overexpressing caspase-6 (Homo sapiens, UniProt Q04917) (Q04917 whole entry): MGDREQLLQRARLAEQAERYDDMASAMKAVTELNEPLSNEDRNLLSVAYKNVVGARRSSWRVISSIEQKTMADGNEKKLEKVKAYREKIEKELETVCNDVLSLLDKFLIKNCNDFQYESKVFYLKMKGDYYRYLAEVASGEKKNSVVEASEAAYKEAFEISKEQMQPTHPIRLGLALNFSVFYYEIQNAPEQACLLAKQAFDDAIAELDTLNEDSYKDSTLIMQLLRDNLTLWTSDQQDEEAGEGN
Procedure: as §1, §2, §3, §4, §5, §6, §7, §8, §9, §10, §11, §12, §13, §14, §15, §16, §17, §18, §19, §20, §21, §22, §23, §24, §25, §26, §27, §28

[10] = molecular target: proteins of HEK293T cells transiently overexpressing caspase-6 (Homo sapiens, UniProt P60842); details: Comp; protein EIF4A1 P60842
Chain of proteins of HEK293T cells transiently overexpressing caspase-6 (Homo sapiens, UniProt P60842) (P60842 whole entry): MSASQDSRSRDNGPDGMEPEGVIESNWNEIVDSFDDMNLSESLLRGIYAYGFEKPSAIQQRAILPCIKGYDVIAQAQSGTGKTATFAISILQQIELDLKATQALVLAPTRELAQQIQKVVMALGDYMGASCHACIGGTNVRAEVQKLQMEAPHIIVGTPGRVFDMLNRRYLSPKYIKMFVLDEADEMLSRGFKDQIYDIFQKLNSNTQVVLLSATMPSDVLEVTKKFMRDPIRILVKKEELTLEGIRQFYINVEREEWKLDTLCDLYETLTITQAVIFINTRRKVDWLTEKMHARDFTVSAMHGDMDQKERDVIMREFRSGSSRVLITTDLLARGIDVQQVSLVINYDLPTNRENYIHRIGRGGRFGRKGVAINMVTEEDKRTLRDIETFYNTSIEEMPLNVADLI
Procedure: as §1, §2, §3, §4, §5, §6, §7, §8, §9, §10, §11, §12, §13, §14, §15, §16, §17, §18, §19, §20, §21, §22, §23, §24, §25, §26, §27, §28

[11] = molecular target: proteins of HEK293T cells transiently overexpressing caspase-6 (Homo sapiens, UniProt P31946); details: Comp; protein YWHAB P31946
Procedure: as §1, §2, §3, §4, §5, §6, §7, §8, §9, §10, §11, §12, §13, §14, §15, §16, §17, §18, §19, §20, §21, §22, §23, §24, §25, §26, §27, §28

[12] = molecular target: proteins of HEK293T cells transiently overexpressing caspase-6 (Homo sapiens, UniProt Q9BZZ5); details: Comp; protein API5 Q9BZZ5
Chain of proteins of HEK293T cells transiently overexpressing caspase-6 (Homo sapiens, UniProt Q9BZZ5) (Q9BZZ5 whole entry): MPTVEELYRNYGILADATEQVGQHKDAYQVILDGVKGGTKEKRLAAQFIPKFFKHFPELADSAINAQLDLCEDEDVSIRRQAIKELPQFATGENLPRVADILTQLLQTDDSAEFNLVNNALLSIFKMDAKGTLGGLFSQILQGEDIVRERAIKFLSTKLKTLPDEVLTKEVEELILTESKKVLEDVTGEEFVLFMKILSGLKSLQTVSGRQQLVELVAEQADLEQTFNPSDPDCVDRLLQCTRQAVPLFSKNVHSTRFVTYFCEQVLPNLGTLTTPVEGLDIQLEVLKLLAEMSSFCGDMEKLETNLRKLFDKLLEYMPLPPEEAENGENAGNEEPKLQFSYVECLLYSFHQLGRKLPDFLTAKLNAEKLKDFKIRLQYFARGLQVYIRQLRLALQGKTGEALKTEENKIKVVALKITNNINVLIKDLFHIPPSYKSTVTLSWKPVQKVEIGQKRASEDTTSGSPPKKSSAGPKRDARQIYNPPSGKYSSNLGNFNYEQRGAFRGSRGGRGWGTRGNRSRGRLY
Procedure: as §1, §2, §3, §4, §5, §6, §7, §8, §9, §10, §11, §12, §13, §14, §15, §16, §17, §18, §19, §20, §21, §22, §23, §24, §25, §26, §27, §28

[13] = molecular target: proteins of HEK293T cells transiently overexpressing caspase-6 (Homo sapiens, UniProt Q99460)
Chain of proteins of HEK293T cells transiently overexpressing caspase-6 (Homo sapiens, UniProt Q99460) (Q99460 whole entry): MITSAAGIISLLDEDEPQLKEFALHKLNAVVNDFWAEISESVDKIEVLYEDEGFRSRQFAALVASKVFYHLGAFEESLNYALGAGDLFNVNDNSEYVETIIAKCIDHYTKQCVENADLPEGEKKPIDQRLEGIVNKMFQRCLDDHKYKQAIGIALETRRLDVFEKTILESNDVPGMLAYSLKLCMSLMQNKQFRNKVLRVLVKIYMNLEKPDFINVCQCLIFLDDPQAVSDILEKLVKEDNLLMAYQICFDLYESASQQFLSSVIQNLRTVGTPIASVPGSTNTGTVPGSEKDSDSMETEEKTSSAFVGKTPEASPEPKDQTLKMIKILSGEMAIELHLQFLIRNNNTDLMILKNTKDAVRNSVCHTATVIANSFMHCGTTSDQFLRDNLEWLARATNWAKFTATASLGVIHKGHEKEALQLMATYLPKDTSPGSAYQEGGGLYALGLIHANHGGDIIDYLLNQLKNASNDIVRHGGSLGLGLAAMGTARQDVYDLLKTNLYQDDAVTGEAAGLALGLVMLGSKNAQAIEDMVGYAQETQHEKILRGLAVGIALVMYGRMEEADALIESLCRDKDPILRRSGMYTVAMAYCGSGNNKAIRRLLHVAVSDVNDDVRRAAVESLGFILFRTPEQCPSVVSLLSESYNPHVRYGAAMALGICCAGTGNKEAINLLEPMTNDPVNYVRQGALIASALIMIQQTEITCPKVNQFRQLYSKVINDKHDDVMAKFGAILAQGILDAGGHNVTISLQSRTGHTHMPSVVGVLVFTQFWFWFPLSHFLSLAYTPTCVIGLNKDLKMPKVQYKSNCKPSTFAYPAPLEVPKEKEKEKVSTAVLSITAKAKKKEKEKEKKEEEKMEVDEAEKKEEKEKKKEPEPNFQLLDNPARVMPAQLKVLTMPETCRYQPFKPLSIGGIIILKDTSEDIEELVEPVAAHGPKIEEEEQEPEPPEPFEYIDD
Procedure: as §1, §2, §3, §4, §5, §6, §7, §8, §9, §10, §11, §12, §13, §14, §15, §16, §17, §18, §19, §20, §21, §22, §23, §24, §25, §26, §27, §28

[14] = molecular target: T1, proteins of HEK293T cells transiently overexpressing caspase-6 (Homo sapiens, UniProt P50990); details: Comp; protein CCT8 P50990
T1 sequence (P50990 1-548): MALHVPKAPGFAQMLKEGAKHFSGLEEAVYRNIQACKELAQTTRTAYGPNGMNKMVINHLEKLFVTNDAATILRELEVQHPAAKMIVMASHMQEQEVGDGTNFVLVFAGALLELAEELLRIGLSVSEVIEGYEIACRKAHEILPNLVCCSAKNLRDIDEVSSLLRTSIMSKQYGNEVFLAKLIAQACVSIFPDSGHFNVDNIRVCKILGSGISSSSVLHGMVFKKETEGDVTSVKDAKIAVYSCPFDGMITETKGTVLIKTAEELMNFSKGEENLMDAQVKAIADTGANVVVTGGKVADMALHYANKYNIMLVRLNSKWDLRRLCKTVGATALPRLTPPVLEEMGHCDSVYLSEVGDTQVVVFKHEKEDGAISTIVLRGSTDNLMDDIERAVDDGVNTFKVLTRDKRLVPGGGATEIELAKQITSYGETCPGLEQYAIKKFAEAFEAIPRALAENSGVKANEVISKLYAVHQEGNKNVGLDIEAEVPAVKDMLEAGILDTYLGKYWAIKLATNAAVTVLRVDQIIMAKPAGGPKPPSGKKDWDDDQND
Procedure: as §1, §2, §3, §4, §5, §6, §7, §8, §9, §10, §11, §12, §13, §14, §15, §16, §17, §18, §19, §20, §21, §22, §23, §24, §25, §26, §27, §28

[15] = molecular target: proteins of HEK293T cells transiently overexpressing caspase-6 (Homo sapiens, UniProt O00571)
Chain of proteins of HEK293T cells transiently overexpressing caspase-6 (Homo sapiens, UniProt O00571) (O00571 whole entry): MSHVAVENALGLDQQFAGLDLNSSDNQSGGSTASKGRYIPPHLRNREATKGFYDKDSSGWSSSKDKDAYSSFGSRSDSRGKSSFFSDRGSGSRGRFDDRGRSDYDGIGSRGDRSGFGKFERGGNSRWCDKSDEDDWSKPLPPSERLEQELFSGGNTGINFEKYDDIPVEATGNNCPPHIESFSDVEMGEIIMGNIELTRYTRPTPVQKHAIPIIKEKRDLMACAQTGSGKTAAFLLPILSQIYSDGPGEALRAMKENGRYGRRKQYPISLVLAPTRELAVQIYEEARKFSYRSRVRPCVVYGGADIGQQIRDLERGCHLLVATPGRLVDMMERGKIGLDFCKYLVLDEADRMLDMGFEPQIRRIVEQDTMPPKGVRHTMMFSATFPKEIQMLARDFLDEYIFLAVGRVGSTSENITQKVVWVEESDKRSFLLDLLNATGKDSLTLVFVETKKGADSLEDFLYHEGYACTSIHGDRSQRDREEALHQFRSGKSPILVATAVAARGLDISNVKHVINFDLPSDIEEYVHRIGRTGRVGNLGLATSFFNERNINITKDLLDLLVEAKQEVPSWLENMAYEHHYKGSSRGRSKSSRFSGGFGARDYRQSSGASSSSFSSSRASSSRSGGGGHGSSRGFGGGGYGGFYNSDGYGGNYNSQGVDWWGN
Procedure: as §1, §2, §3, §4, §5, §6, §7, §8, §9, §10, §11, §12, §13, §14, §15, §16, §17, §18, §19, §20, §21, §22, §23, §24, §25, §26, §27, §28

[16] = molecular target: proteins of HEK293T cells transiently overexpressing caspase-6 (Homo sapiens, UniProt P52209); details: Comp; protein PGD P52209
Chain of proteins of HEK293T cells transiently overexpressing caspase-6 (Homo sapiens, UniProt P52209) (P52209 whole entry): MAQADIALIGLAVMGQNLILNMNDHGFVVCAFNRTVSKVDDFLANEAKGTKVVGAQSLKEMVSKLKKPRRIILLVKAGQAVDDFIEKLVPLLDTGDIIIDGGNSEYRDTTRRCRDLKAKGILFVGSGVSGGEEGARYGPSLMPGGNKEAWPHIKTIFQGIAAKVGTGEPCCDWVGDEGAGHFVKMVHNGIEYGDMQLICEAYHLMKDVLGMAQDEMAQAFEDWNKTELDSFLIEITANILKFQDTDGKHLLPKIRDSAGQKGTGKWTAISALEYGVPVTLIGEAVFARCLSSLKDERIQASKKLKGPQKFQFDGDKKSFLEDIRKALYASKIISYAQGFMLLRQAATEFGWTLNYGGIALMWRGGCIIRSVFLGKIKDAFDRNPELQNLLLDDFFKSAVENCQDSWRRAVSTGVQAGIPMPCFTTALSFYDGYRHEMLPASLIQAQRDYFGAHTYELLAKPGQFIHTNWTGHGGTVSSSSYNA
Procedure: as §1, §2, §3, §4, §5, §6, §7, §8, §9, §10, §11, §12, §13, §14, §15, §16, §17, §18, §19, §20, §21, §22, §23, §24, §25, §26, §27, §28

[17] = protein IMPDH2 (P12268), Exp Comp, analysis C6, p 0.0078, 8 peptides
[18] = protein EIF3I (Q13347), Exp Comp, analysis C6, p 0.0625, 5 peptides
[19] = protein GSTP1 (P09211), Exp Comp, analysis C6, p 0.5000, 2 peptides
[20] = protein EIF3L (Q9Y262), Exp Comp, analysis C6, p 0.8438, 6 peptides
[21] = protein PSMD1 (Q99460), Exp Comp, analysis C6, p 0.1250, 4 peptides
[22] = protein DDX3X (O00571), Exp Comp, analysis C6, p 0.1250, 4 peptides

C=CS(=O)(=O)N1C[C@H](C(=O)Nc2ccc(OC(F)(F)F)cc2)C[C@@H](c2ccccc2)C1 [3a]
enrich.exp.med [1]: 0.6522 | enrich.exp.med ([2]; Comp, protein IMPDH2 P12268): 0.9888 | enrich.exp.med.lin [2, 17]: 1.985 | enrich.exp.med.log2 [2, 17]: 0.9888 | enrich.exp.med ([3]; Comp, protein EIF3I Q13347): 1.022 | enrich.exp.med.lin [3, 18]: 2.03 | enrich.exp.med.log2 [3, 18]: 1.022 | enrich.exp.med [4]: 0.7266 | enrich.exp.med ([5]; Comp, protein GSTP1 P09211): 0.9589 | enrich.exp.med.lin [5, 19]: 1.9438 | enrich.exp.med.log2 [5, 19]: 0.9589 | enrich.exp.med ([6]; Comp, protein EIF3L Q9Y262): 1.059 | enrich.exp.med.lin [6, 20]: 2.083 | enrich.exp.med.log2 [6, 20]: 1.059 | enrich.exp.med [7]: 0.707 | enrich.exp.med [8]: 0.7902 | enrich.exp.med [9]: 0.8526 | enrich.exp.med [10]: 0.5985 | enrich.exp.med [11]: 0.6188 | enrich.exp.med [12]: 0.5956 | enrich.exp.med ([13]; Comp, protein PSMD1 Q99460): 0.9459 | enrich.exp.med.lin [13, 21]: 1.926 | enrich.exp.med.log2 [13, 21]: 0.9459 | enrich.exp.med [14]: 0.6038 | enrich.exp.med ([15]; Comp, protein DDX3X O00571): 1.089 | enrich.exp.med.lin [15, 22]: 2.128 | enrich.exp.med.log2 [15, 22]: 1.089 | enrich.exp.med [16]: 0.9271
